pEC50: −log10 of the molar value.

Here are results for eight molecules from US12161646B2, “Polycyclic carbamoylpyridone derivatives, pharmaceutical compositions and use thereof” (JIAXING ANDICON BIOTECH CO., LTD., priority 2018, dated 2024).

One data set is described as follows: Bioavailability test. The format is in vivo, SD rats. Conditions: for BA%: SD rats, from AUC of oral and intravenous administration; for half-life: SD, rat, in vivo, iv. Here is the method:
Example 6: Bioavailability Test
<Experimental Materials and Methods for Oral Absorption Research>
• (1) Animals used: SD rats are used. • (2) Feeding conditions: SD rats were allowed to take in solid feed and purified water freely. • (3) Dosing amount and grouping setting: Oral or intravenous administration were performed at prescribed dosage. The groups were set as follows. (the dosage of each compound varied)
Oral administration 1 to 30 mg/kg (n=5 to 6)
Intravenous administration 0.5 to 10 mg/kg (n=5 to 6) • (4) Preparation of dosing solution: suspension was used for oral administration through intragastric administration. Solution was used for intravenous administration through tail vein. • (5) Evaluation items: Blood was collected overtime, and the concentrations of the drugs in plasma were determined by LC/MS/MS. • (6) Statistical analysis: For concentration changes in plasma, the area under the concentration-time curve (AUC) in plasma was calculated using the nonlinear least squares method, and the bioavailability (BA) was calculated from the AUC in the oral administration group and the intravenous administration group, and the elimination half-life of drug concentration in plasma through intravenous administration was counted.

Data set [1] is described as follows: Detection of toxicity of samples to MDCK cells (alamarBlue). Conditions: dog, 48 hours incubation. The format is cell-based. The source says: Example 9: Detection of Toxicity of Samples to MDCK Cells
The experiment uses alamarBlue® (Invitrogen) kit to detect the toxic effects of drugs on cells.
Experimental principle: The experiment uses alamarBlue® (Invitrogen) kit to detect the toxic effects of drugs on cells. AlamarBlue® is a redox indicator that produces changes in absorbance and fluorescent signals based on cellular metabolic activity. AlamarBlue® is freely soluble in water. After its oxidized form enters cells, it will be reduced by mitochondrial enzymes to produce measurable fluorescence and color changes. It is used for quantitative analysis of cell viability and cell proliferation, and for in vitro cytotoxicity studies. Normal cells with metabolic activity can convert the reagents to produce strong fluorescence and color changes.
Experimental procedure: MDCK cells were seeded in a 96-well cell culture plate, and cultured till cell attachment for later use. The drug was serially 3 times diluted from 2 times the highest test concentration to 8 gradients. The drug was added to the cells and cultured in a CO2 incubator at 37° C. […] The toxicity of the drug to cells is inversely proportional to the activity of the cells and is expressed as the activity of the cells. cell activity (%)=(drug group-blank control)/(cell control-blank control)*100 Calculation formula: […]
For orientation: The colour change of resazurin is a common sign of viable cells or microbes.

Data set [2] concerns A/WS/33, A/Victoria/3/75 or B/Maryland/1/59. The class given is in vivo, BALB/cAnNCrlCrlj mice. Conditions: single oral administration, 50% lethal suppression, 14 days after infection.
Another data set relates to influenza virus. Description: CPE suppression effect confirmation test. The class given is cell-based. Conditions: for CPE inhibitory effect compared with S-033188A: relative to S-033188A; for pEC50: unidentified influenza virus, 72 h, read-out: CPE_EC50.

The half-life is the time needed for the level to fall by half in the phase considered. Broadly, the CC50 is the concentration giving 50% cytotoxicity. A low value points to harm at low concentration. In the data set “Bioavailability test”, `O=C1c2c(O)c(=O)ccn2N([C@@H]2c3ccccc3SCc3c2ccc(F)c3F)[C@@H]2COCCN12` [S-033188A, reference compound] gave a BA% of 4.7% and a half-life of 3.8 h. In data set [1], this molecule displayed a CC50 at 48 h of 29.9 µM.
As usually defined, the ED50 is the dose that gives a 50% effect, or the effect in half of the subjects. Lower therefore signals greater potency. `[2H][C@]1(N2[C@@H]3COCCN3C(=O)c3c(OCOC(=O)OC)c(=O)ccn32)c2ccccc2SCc2c1ccc(F)c2F` [1B] yielded a BA% in “Bioavailability test” of 18.4%. The molecule also gave an ED50 in data set [2] of 0.41 mg/kg/day.
In the data set “Bioavailability test”, `[2H]C1([2H])Sc2ccccc2[C@@H](N2[C@@H]3COCCN3C(=O)c3c(OCOC(=O)OC)c(=O)ccn32)c2ccc(F)c(F)c21` [2B] showed a BA% of 15.9%. Also, in data set [2], the ED50 is reported as 0.71 mg/kg/day.
The matching figures for `COC(=O)OCOc1c2n(ccc1=O)N([C@@H]1c3ccccc3SCc3c1ccc(F)c3F)[C@@H]1COCCN1C2=O` [S-033188B, reference compound]: 15.3% and 0.78 mg/kg/day.
Take `[2H]C1([2H])Sc2ccccc2[C@]([2H])(N2[C@@H]3COCCN3C(=O)c3c(O)c(=O)ccn32)c2ccc(F)c(F)c21` [3A]: in the data set on influenza virus, the “CPE inhibitory effect compared with S-033188A” value is given as “twice” and the pEC50 was 9.22. In “Bioavailability test”, this molecule had a BA% of 7.8% and a half-life of 5.2 h.
The molecule `[2H]C1([2H])Sc2ccccc2[C@]([2H])(N2[C@@H]3COCCN3C(=O)c3c(OCOC(=O)OC)c(=O)ccn32)c2ccc(F)c(F)c21` [3B] registered a BA% in the data set “Bioavailability test” of 19.8%. Moreover, the ED50 in data set [2] was found to be 0.33 mg/kg/day.
In the data set “Bioavailability test”, `[2H]C1([2H])Sc2ccccc2[C@@H](N2[C@@H]3COCCN3C(=O)c3c(O)c(=O)ccn32)c2ccc(F)c(F)c21` [2A] showed a BA% of 5.0% and a half-life of 5 h.
Take `[2H][C@]1(N2[C@@H]3COCCN3C(=O)c3c(O)c(=O)ccn32)c2ccccc2SCc2c1ccc(F)c2F` [1A]: in the data set with influenza virus, the “CPE inhibitory effect compared with S-033188A” value is recorded as “twice” and the pEC50 is 9.17. In “Bioavailability test”, this molecule gave a BA% of 7.1% and a half-life of 4 h. The CC50 at 48 h in data set [1] stood at 48.3 µM.
